Molecules are shown by their SMILES. Where a name gives a salt, the structure may show the parent alone.

What is called pIC50 is the negative decadic logarithm of the IC50, by convention in mol/L.

Sequence of human active recombinant p38α-6His tagged (Q16539 whole entry): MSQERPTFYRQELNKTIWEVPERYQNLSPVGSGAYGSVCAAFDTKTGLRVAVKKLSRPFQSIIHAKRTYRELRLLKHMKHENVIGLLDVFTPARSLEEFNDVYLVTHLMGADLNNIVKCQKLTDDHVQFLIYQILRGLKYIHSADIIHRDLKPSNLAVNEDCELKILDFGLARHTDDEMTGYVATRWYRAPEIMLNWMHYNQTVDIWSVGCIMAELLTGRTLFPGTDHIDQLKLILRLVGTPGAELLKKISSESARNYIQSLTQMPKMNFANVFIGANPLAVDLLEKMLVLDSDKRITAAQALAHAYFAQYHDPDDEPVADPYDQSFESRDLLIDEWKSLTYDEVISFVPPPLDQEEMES

The assay concerns the target human active recombinant p38α-6His tagged (Homo sapiens, UniProt Q16539). Nature of the assay: P38 Alpha Enzyme Assay (AlphaScreen, biotinylated-ATF2 substrate).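 Note: 0.5 nM final p38α, reaction started with ATP and run 45 min at 37 °C, phospho-ATF2 read by antibody-based AlphaScreen, background wells quenched with EDTA before ATP.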 In kind it is biochemical. The note with it: p38 alpha enzyme inhibition; means of replicate determinations; 4 h pre-incubation at 37° C.; SD of assay 0.2-0.3 log units. For orientation: In Alpha technology, singlet oxygen from a donor bead excites a nearby acceptor bead.
Consider `Cc1ccc(C(=O)NC2CC2)cc1-n1ccnc(NC[C@@H](O)c2ccccc2)c1=O` [Example 56, N-Cyclopropyl-3-[3-[[(2S)-2-hydroxy-2-phenylethyl]amino]-2-oxo-1(2H)-pyrazinyl]-4-methyl-benzamide], for which the pIC50 is on record as 6.4.

Regarding `Cc1c(F)cc(C(=O)NC2CC2)cc1-n1ccnc(NC(C)(C)c2ccccc2SCCNCCO)c1=O` [Example 322, N-Cyclopropyl-3-fluoro-5-[3-({1-[2-({2-[(2-hydroxyethyl)amino]ethyl}sulfanyl)phenyl]-1-methylethyl}amino)-2-oxopyrazin-1(2H)-yl]-4-methylbenzamide], the pIC50 turned out to be 9.8.

`CONC(=O)c1ccc(C)c(-n2ccnc(N[C@@H](c3ccccc3)[C@@H](C)CN3CCCC3)c2=O)c1` [Example 159, N-Methoxy-4-methyl-3-[3-[[(1R,2S)-2-methyl-1-phenyl-3-(1-pyrrolidinyl)propyl]amino]-2-oxo-1(2H)-pyrazinyl]-benzamide]: the pIC50 was determined as 9.6.

On to `Cc1ccc(C(=O)NC2CC2)cc1-n1ccnc(NC2(c3ccccc3OCCN(C)C)CC2)c1=O` [Example 237, N-Cyclopropyl-3-[3-[[1-[2-[2-(dimethylamino)ethoxy]phenyl]cyclopropyl]amino]-2-oxo-1(2H)-pyrazinyl]-4-methyl-benzamide], for which the pIC50 is 9.9.

On to `Cc1ccc(C(=O)NC2CC2)cc1-n1ccnc(NCCc2ccccn2)c1=O` [Example 9, N-Cyclopropyl-4-methyl-3-[2-oxo-3-[[2-(2-pyridinyl)ethyl]amino]-1(2H)-pyrazinyl]-benzamide], for which the pIC50 turned out to be 6.3.

Turning to `CNCCOc1ccccc1C(C)(C)Nc1nccn(-c2cc(C(=O)NCCF)ccc2C)c1=O` [Example 225, N-(2-Fluoroethyl)-4-methyl-3-[3-[[1-methyl-1-[2-[2-(methylamino)ethoxy]phenyl]ethyl]amino]-2-oxo-1(2H)-pyrazinyl]-benzamide], the pIC50 turned out to be 8.2.

Regarding `Cc1ccc(C(=O)NC2CC2)cc1-n1ccnc(N[C@H](c2ccccc2)C2CCNCC2)c1=O` [Example 103, N-Cyclopropyl-4-methyl-3-[2-oxo-3-[[(S)-phenyl-4-piperidinylmethyl]amino]-1(2H)-pyrazinyl]-benzamide trifluoroacetate], the pIC50 amounted to 6.1.

In the case of `Cc1ccc(C(=O)NC2CC2)cc1-n1ccnc(NC2(c3ccccc3OCCN[C@@H](CO)C(C)C)CC2)c1=O` [Example 293, N-Cyclopropyl-3-[3-({1-[2-(2-{[(1R)-1-(hydroxymethyl)-2-methylpropyl]amino}ethoxy)phenyl]cyclopropyl}amino)-2-oxopyrazin-1(2H)-yl]-4-methylbenzamide], the pIC50 is 9.5.

Consider `CNCCOc1ccccc1C(C)(C)Nc1nccn(-c2cc(C(=O)NOC)cc(F)c2C)c1=O` [Example 316, 3-Fluoro-N-methoxy-4-methyl-5-{3-[(1-methyl-1-{2-[2-(methylamino)ethoxyl]phenyl}ethyl)amino]-2-oxopyrazin-1(2H)-yl}benzamide], for which the pIC50 is listed as 10.4.

Take `Cc1ccc(C(=O)NC2CC2)cc1-n1ccnc(NC(C)(C)c2ccccc2OCCN2CCOCC2)c1=O` [Example 203, N-Cyclopropyl-4-methyl-3-[3-[[1-methyl-1-[2-[2-(4-morpholinyl)ethoxy]phenyl]ethyl]amino]-2-oxo-1(2H)-pyrazinyl]-benzamide]: the pIC50 worked out at 8.9.

Consider `Cc1ccc(C(=O)NC2CC2)cc1-n1ccnc(N[C@H](C)c2cccc3ccccc23)c1=O` [Example 84, N-Cyclopropyl-4-methyl-3-[3-[[(1R)-1-(1-naphthalenyl)ethyl]amino]-2-oxo-1(2H)-pyrazinyl]-benzamide], for which the pIC50 was 8.6.

On to `Cc1ccc(C(=O)NC2CC2)cc1-n1ccnc(N[C@@H](c2ccccc2)[C@@H](C)CN2CCC(N(C)C)CC2)c1=O` [Example 176, N-Cyclopropyl-3-[3-[[(1R,2S)-3-[4-(dimethylamino)-1-piperidinyl]-2-methyl-1-phenylpropyl]amino]-2-oxo-1(2H)-pyrazinyl]-4-methyl-benzamide], for which the pIC50 amounted to 8.7.

Regarding `Cc1ccc(C(=O)NC2CC2)cc1-n1ccnc(NC(C)(C)c2ccccc2O)c1=O` [Example 134, N-Cyclopropyl-3-[3-[[1-(2-hydroxyphenyl)-1-methylethyl]amino]-2-oxo-1(2H)-pyrazinyl]-4-methyl-benzamide], the pIC50 is recorded as 8.9.

Consider `Cc1ccc(C(=O)NC2CC2)cc1-n1ccnc(N[C@@H](c2ccccc2)[C@@H](C)CN2CC3CC2CN3C)c1=O` (stereo partly drawn) [Example 196, N-Cyclopropyl-4-methyl-3-[3-[[(1R,2S)-2-methyl-3-(5-methyl-2,5-diazabicyclo[2.2.1]hept-2-yl)-1-phenylpropyl]amino]-2-oxo-1(2H)-pyrazinyl]-benzamide], for which the pIC50 is on record as 8.9.

For the compound `CNCCOc1ccccc1C(C)(C)Nc1nccn(-c2cc(C(=O)NC3CCC3)ccc2C)c1=O` [Example 224, N-Cyclobutyl-4-methyl-3-[3-[[1-methyl-1-[2-[2-(methylamino)ethoxy]phenyl]ethyl]amino]-2-oxo-1(2H)-pyrazinyl]-benzamide], the pIC50 worked out at 8.4.

As for `Cc1ccc(C(=O)NC2CC2)cc1-n1ccnc(N2CCOC(c3ccccc3)C2)c1=O` (stereo not shown) [Example 67, N-Cyclopropyl-4-methyl-3-[2-oxo-3-(2-phenyl-4-morpholinyl)-1(2H)-pyrazinyl]-benzamide], the pIC50 is recorded as 6.6.

Turning to `Cc1ccc(C(=O)NC2CC2)cc1-n1ccnc(NC2(c3ccccc3OCCNC3CCC3)CC2)c1=O` [Example 248, 3-[3-[[1-[2-[2-(cyclobutylamino)ethoxy]phenyl]cyclopropyl]amino]-2-oxo-1(2H)-pyrazinyl]-N-Cyclopropyl-4-methyl-benzamide], the pIC50 worked out at 10.

With `Cc1ccc(C(=O)NC2CC2)cc1-n1ccnc(NC(C)(C)c2ccccc2OC(C)CN2CCN(C)CC2)c1=O` (stereo not shown) [Example 209, N-Cyclopropyl-4-methyl-3-[3-[[1-methyl-1-[2-[1-methyl-2-(4-methyl-1-piperazinyl)ethoxy]phenyl]ethyl]amino]-2-oxo-1(2H)-pyrazinyl]-benzamide], the pIC50 is recorded as 8.9.

Regarding `CNCCOc1ccccc1C1(Nc2nccn(-c3cc(C(=O)NC4CC4)ccc3C)c2=O)CC1` [Example 167, N-Cyclopropyl-4-methyl-3-[3-[[1-[2-[2-(methylamino)ethoxy]phenyl]cyclopropyl]amino]-2-oxo-1(2H)-pyrazinyl]-benzamide], the pIC50 is 9.7.

Regarding `CNC[C@@H](O)COc1ccccc1C(C)(C)Nc1nccn(-c2cc(C(=O)NC3CC3)cc(F)c2C)c1=O` [Example 307, N-Cyclopropyl-3-fluoro-5-[3-{[1-(2-{[(2R)-2-hydroxy-3-(methylamino)propyl]oxy}phenyl)-1-methylethyl]amino}-2-oxopyrazin-1(2H)-yl]-4-methylbenzamide], the pIC50 is 10.3.

Turning to `Cc1ccc(C(=O)NC2CC2)cc1-n1ccnc(NCc2cccc(Cl)c2)c1=O` [Example 130, 3-[3-[[(3-Chlorophenyl)methyl]amino]-2-oxo-1(2H)-pyrazinyl]-N-cyclopropyl-4-methyl-benzamide], the pIC50 was determined as 8.2.

As to `CNCCOc1ccccc1C(C)(C)Nc1nccn(-c2cc(C(=O)NC3(C)CC3)ccc2C)c1=O` [Example 227, 4-Methyl-N-(1-methylcyclopropyl)-3-[3-[[1-methyl-1-[2-[2-(methylamino)ethoxy]phenyl]ethyl]amino]-2-oxo-1(2H)-pyrazinyl]-benzamide], the pIC50 came to 8.5.

Regarding `CCNCCOc1ccccc1C(C)(C)Nc1nccn(-c2cc(C(=O)NC3CC3)cc(F)c2C)c1=O` [Example 252, N-Cyclopropyl-3-[3-[[1-[2-[2-(ethylamino)ethoxy]phenyl]-1-methylethyl]amino]-2-oxo-1(2H)-pyrazinyl]-5-fluoro-4-methyl-benzamide], the pIC50 was 10.1.

Turning to `Cc1cccc(C2CCCCN2c2nccn(-c3cc(C(=O)NC4CC4)ccc3C)c2=O)c1` (stereo not shown) [Example 94, N-Cyclopropyl-4-methyl-3-[3-[2-(3-methylphenyl)-1-pipendinyl]-2-oxo-1(2H)-pyrazinyl]-benzamide], the pIC50 is listed as 7.5.

As for `Cc1ccc(C(=O)NC2CC2)cc1-n1cc(CN(C)C)nc(NCc2ccccc2)c1=O` [Example 105, N-Cyclopropyl-3-[5-[(dimethylamino)methyl]-2-oxo-3-[(phenylmethyl)amino]-1(2H)-pyrazinyl]-4-methyl-benzamide], the pIC50 is 6.2.

On to `Cc1ccc(C(=O)NC2CC2)cc1-n1ccnc(N2CCCC2Cc2ccccc2F)c1=O` (stereo not shown) [Example 75, N-Cyclopropyl-3-[3-[2-[(2-fluorophenyl)methyl]-1-pyrrolidinyl]-2-oxo-1(2H)-pyrazinyl]-4-methyl-benzamide], for which the negative-log IC50 (pIC50) stood at 7.1.

With `Cc1ccc(C(=O)NC2CC2)cc1-n1ccnc(NC(C)(C)c2ccccc2OC[C@H](N)CO)c1=O` [Example 305, 3-[3-{[1-(2-{[(2R)-2-Amino-3-hydroxypropyl]oxy}phenyl)-1-methylethyl]amino}-2-oxopyrazin-1(2H)-yl]-N-cyclopropyl-4-methylbenzamide], the pIC50 is recorded as 9.9.

`Cc1ccc(C(=O)NC2CC2)cc1-n1ccnc(N2CCCC(c3ccccc3)C2)c1=O` (stereo not shown) [Example 60, N-Cyclopropyl-4-methyl-3-[2-oxo-3-(3-phenyl-1-piperidinyl)-1(2H)-pyrazinyl]-benzamide]: the pIC50 turned out to be 7.3.

Regarding `Cc1ccc(C(=O)NC2CC2)cc1-n1ccnc(NC(C)(C)c2ccccc2OCC2CCCNC2)c1=O` (stereo not shown) [Example 218, N-Cyclopropyl-4-methyl-3-[3-[[1-methyl-1-[2-(3-piperidinylmethoxy)phenyl]ethyl]amino]-2-oxo-1(2H)-pyrazinyl]-benzamide], the pIC50 came out at 9.1.

In the case of `Cc1ccc(C(=O)NC2CC2)cc1-n1ccnc(N2CCN(CCN3CCCC3)C(c3ccccc3)C2)c1=O` (stereo not shown) [Example 123, N-Cyclopropyl-4-methyl-3-[2-oxo-3-[3-phenyl-4-[2-(1-pyrrolidinyl)ethyl]-1-piperazinyl]-1(2H)-pyrazinyl]-benzamide], the pIC50 was found to be 7.

As to `CNCCOc1ccccc1C1(Nc2nccn(-c3cc(C(=O)NC4CC4)ccc3C)c2=O)CCC1` [Example 268, N-Cyclopropyl-4-methyl-3-[3-[[1-[2-[2-(methylamino)ethoxy]phenyl]cyclobutyl]amino]-2-oxo-1(2H)-pyrazinyl]-benzamide], the pIC50 turned out to be 10.

Values taken from patent publication US20120214822A1 (ASTRAZENECA AB, priority 2007, published 2012).
